In brackets after ≈: the same amount, converted by molar mass.
Columns and labels:
Assay type in all cases: functional
[1] = test system: Spodoptera litura; assay: Antifeedant activity against Spodoptera litura third-instar larvae fed on compound pre-treated castor-oil plant leaves assessed as antifeedant rate at 1 mg/ml after 24 hr
[2] = test system: Brontispa longissima; assay: Insecticidal activity against Brontispa longissima third-instar larvae fed on compound pre-treated Cocos nucifera L. leaves assessed as insect mortality at 50 ug/ml measured 48 hr after compound treatment; conditions: in Cocos nucifera
[3] = test system: Brontispa longissima; assay: Insecticidal activity against Brontispa longissima second-instar larvae fed on compound pre-treated Cocos nucifera L. leaves assessed as insect mortality at 50 ug/ml measured 48 hr after compound treatment; conditions: in Cocos nucifera
[4] = test system: Brontispa longissima; assay: Insecticidal activity against Brontispa longissima fifth-instar larvae fed on compound pre-treated Cocos nucifera L. leaves assessed as insect mortality at 50 ug/ml measured 48 hr after compound treatment; conditions: in Cocos nucifera
[5] = test system: Brontispa longissima; assay: Insecticidal activity against Brontispa longissima fifth-instar larvae fed on compound pre-treated Cocos nucifera L. leaves assessed as insect mortality at 25 ug/ml measured 48 hr after compound treatment; conditions: in Cocos nucifera
[6] = test system: Brontispa longissima; assay: Insecticidal activity against Brontispa longissima third-instar larvae fed on compound pre-treated Cocos nucifera L. leaves assessed as insect mortality at 50 ug/ml measured 24 hr after compound treatment; conditions: in Cocos nucifera
[7] = test system: Brontispa longissima; assay: Insecticidal activity against Brontispa longissima fifth-instar larvae fed on compound pre-treated Cocos nucifera L. leaves assessed as insect mortality at 50 ug/ml measured 24 hr after compound treatment; conditions: in Cocos nucifera
[8] = test system: Brontispa longissima; assay: Insecticidal activity against Brontispa longissima fifth-instar larvae fed on compound pre-treated Cocos nucifera L. leaves assessed as insect mortality at 25 ug/ml measured 24 hr after compound treatment; conditions: in Cocos nucifera
[9] = test system: Brontispa longissima; assay: Insecticidal activity against Brontispa longissima second-instar larvae fed on compound pre-treated Cocos nucifera L. leaves assessed as insect mortality at 50 ug/ml measured 72 hr after compound treatment; conditions: in Cocos nucifera
[10] = test system: Spodoptera litura; assay: Insecticidal activity against Spodoptera litura third-instar larvae fed on compound pre-treated Ricinus communis L. leaves assessed as insect mortality at 0.5 mg/ml measured 12 days after compound treatment; conditions: in Ricinus communis
[11] = test system: Spodoptera litura; assay: Antifeedant activity against Spodoptera litura third-instar larvae fed on compound pre-treated castor-oil plant leaves assessed as antifeedant rate at 1 mg/ml after 48 hr
[12] = test system: Brontispa longissima; assay: Insecticidal activity against Brontispa longissima fourth-instar larvae fed on compound pre-treated Cocos nucifera L. leaves assessed as insect mortality at 50 ug/ml measured 72 hr after compound treatment; conditions: in Cocos nucifera
[13] = test system: Brontispa longissima; assay: Insecticidal activity against Brontispa longissima fourth-instar larvae fed on compound pre-treated Cocos nucifera L. leaves assessed as insect mortality at 50 ug/ml measured 24 hr after compound treatment; conditions: in Cocos nucifera
[14] = test system: Brontispa longissima; assay: Insecticidal activity against Brontispa longissima fifth-instar larvae fed on compound pre-treated Cocos nucifera L. leaves assessed as insect mortality at 25 ug/ml measured 72 hr after compound treatment; conditions: in Cocos nucifera
[15] = test system: Brontispa longissima; assay: Insecticidal activity against Brontispa longissima second-instar larvae fed on compound pre-treated Cocos nucifera L. leaves assessed as insect mortality at 50 ug/ml measured 24 hr after compound treatment; conditions: in Cocos nucifera
[16] = test system: Brontispa longissima; assay: Insecticidal activity against Brontispa longissima fifth-instar larvae fed on compound pre-treated Cocos nucifera L. leaves assessed as insect mortality at 50 ug/ml measured 72 hr after compound treatment; conditions: in Cocos nucifera
[17] = test system: Spodoptera litura; assay: Insecticidal activity against Spodoptera litura third-instar larvae fed on compound pre-treated Ricinus communis L. leaves assessed as insect mortality at 1 mg/ml measured 12 days after compound treatment; conditions: in Ricinus communis
[18] = test system: Brontispa longissima; assay: Insecticidal activity against Brontispa longissima fifth-instar larvae fed on compound pre-treated Cocos nucifera L. leaves assessed as insect mortality measured 24 hr after compound treatment; conditions: in Cocos nucifera
[19] = test system: Brontispa longissima; assay: Insecticidal activity against Brontispa longissima third-instar larvae fed on compound pre-treated Cocos nucifera L. leaves assessed as insect mortality at 50 ug/ml measured 12 hr after compound treatment; conditions: in Cocos nucifera
[20] = test system: Brontispa longissima; assay: Insecticidal activity against Brontispa longissima fifth-instar larvae fed on compound pre-treated Cocos nucifera L. leaves assessed as insect mortality at 25 ug/ml measured 12 hr after compound treatment; conditions: in Cocos nucifera
[21] = test system: Spodoptera litura; assay: Antifeedant activity against Spodoptera litura third-instar larvae fed on compound pre-treated castor-oil plant leaves assessed as antifeedant rate at 0.5 mg/ml after 48 hr
[22] = test system: Brontispa longissima; assay: Insecticidal activity against Brontispa longissima fifth-instar larvae fed on compound pre-treated Cocos nucifera L. leaves assessed as insect mortality measured 48 hr after compound treatment; conditions: in Cocos nucifera
[23] = test system: Brontispa longissima; assay: Insecticidal activity against Brontispa longissima fourth-instar larvae fed on compound pre-treated Cocos nucifera L. leaves assessed as insect mortality at 50 ug/ml measured 48 hr after compound treatment; conditions: in Cocos nucifera
[24] = test system: Brontispa longissima; assay: Insecticidal activity against Brontispa longissima third-instar larvae fed on compound pre-treated Cocos nucifera L. leaves assessed as insect mortality at 50 ug/ml measured 72 hr after compound treatment; conditions: in Cocos nucifera
[25] = test system: Brontispa longissima; assay: Insecticidal activity against Brontispa longissima fifth-instar larvae fed on compound pre-treated Cocos nucifera L. leaves assessed as insect mortality at 50 ug/ml measured 12 hr after compound treatment; conditions: in Cocos nucifera
[26] = test system: Brontispa longissima; assay: Insecticidal activity against Brontispa longissima second-instar larvae fed on compound pre-treated Cocos nucifera L. leaves assessed as insect mortality at 50 ug/ml measured 12 hr after compound treatment; conditions: in Cocos nucifera
[27] = test system: Brontispa longissima; assay: Insecticidal activity against Brontispa longissima fourth-instar larvae fed on compound pre-treated Cocos nucifera L. leaves assessed as insect mortality at 50 ug/ml measured 12 hr after compound treatment; conditions: in Cocos nucifera
[28] = test system: Spodoptera litura; assay: Antifeedant activity against Spodoptera litura third-instar larvae fed on compound pre-treated castor-oil plant leaves assessed as antifeedant rate at 0.5 mg/ml after 24 hr
[29] = test system: Brontispa longissima; assay: Insecticidal activity against Brontispa longissima fifth-instar larvae fed on compound pre-treated Cocos nucifera L. leaves assessed as insect mortality at 10 ug/ml measured 48 hr after compound treatment; conditions: in Cocos nucifera
[30] = test system: Brontispa longissima; assay: Insecticidal activity against Brontispa longissima fifth-instar larvae fed on compound pre-treated Cocos nucifera L. leaves assessed as insect mortality at 10 ug/ml measured 72 hr after compound treatment; conditions: in Cocos nucifera
[31] = test system: Brontispa longissima; assay: Insecticidal activity against Brontispa longissima fifth-instar larvae fed on compound pre-treated Cocos nucifera L. leaves assessed as insect mortality at 10 ug/ml measured 12 hr after compound treatment; conditions: in Cocos nucifera
[32] = test system: Brontispa longissima; assay: Insecticidal activity against Brontispa longissima fifth-instar larvae fed on compound pre-treated Cocos nucifera L. leaves assessed as insect mortality at 10 ug/ml measured 24 hr after compound treatment; conditions: in Cocos nucifera
[33] = test system: Brontispa longissima; assay: Insecticidal activity against Brontispa longissima fifth-instar larvae fed on compound pre-treated Cocos nucifera L. leaves assessed as insect mortality at 1 ug/ml measured 12 hr after compound treatment; conditions: in Cocos nucifera
[34] = test system: Brontispa longissima; assay: Insecticidal activity against Brontispa longissima fifth-instar larvae fed on compound pre-treated Cocos nucifera L. leaves assessed as insect mortality at 1 ug/ml measured 72 hr after compound treatment; conditions: in Cocos nucifera
[35] = test system: Brontispa longissima; assay: Insecticidal activity against Brontispa longissima fifth-instar larvae fed on compound pre-treated Cocos nucifera L. leaves assessed as insect mortality at 1 ug/ml measured 24 hr after compound treatment; conditions: in Cocos nucifera
[36] = test system: Brontispa longissima; assay: Insecticidal activity against Brontispa longissima fifth-instar larvae fed on compound pre-treated Cocos nucifera L. leaves assessed as insect mortality at 1 ug/ml measured 48 hr after compound treatment; conditions: in Cocos nucifera
[37] = test system: Brontispa longissima; assay: Insecticidal activity against Brontispa longissima fifth-instar larvae fed on compound pre-treated Cocos nucifera L. leaves assessed as insect mortality at 5 ug/ml measured 72 hr after compound treatment; conditions: in Cocos nucifera
[38] = test system: Brontispa longissima; assay: Insecticidal activity against Brontispa longissima fifth-instar larvae fed on compound pre-treated Cocos nucifera L. leaves assessed as insect mortality at 5 ug/ml measured 48 hr after compound treatment; conditions: in Cocos nucifera
[39] = test system: Brontispa longissima; assay: Insecticidal activity against Brontispa longissima fifth-instar larvae fed on compound pre-treated Cocos nucifera L. leaves assessed as insect mortality at 5 ug/ml measured 24 hr after compound treatment; conditions: in Cocos nucifera
[40] = test system: Brontispa longissima; assay: Insecticidal activity against Brontispa longissima fifth-instar larvae fed on compound pre-treated Cocos nucifera L. leaves assessed as insect mortality at 5 ug/ml measured 12 hr after compound treatment; conditions: in Cocos nucifera

Structure (SMILES)	Activity [1] [%]	mortality at 50 µg/mL [2] [%]	mortality at 50 µg/mL [3] [%]	mortality at 50 µg/mL [4] [%]	mortality at 50 µg/mL [6] [%]	mortality at 50 µg/mL [7] [%]	mortality at 50 µg/mL [9] [%]	Activity [11] [%]	mortality at 50 µg/mL [12] [%]	mortality at 50 µg/mL [13] [%]	mortality at 50 µg/mL [15] [%]	mortality at 50 µg/mL [16] [%]	mortality at 1000 µg/mL [17] [%]	LC50 [18] [µg/mL]	mortality at 50 µg/mL [19] [%]	LC50 [22] [µg/mL]	mortality at 50 µg/mL [23] [%]	mortality at 50 µg/mL [24] [%]	mortality at 50 µg/mL [25] [%]	mortality at 50 µg/mL [26] [%]	other results
CC[C@H](C)C(=O)O[C@@H]1[C@H]2CC3=C4CC(=O)O[C@@H](c5ccoc5)[C@]4(C)CC[C@@H]3[C@@](C)(C2=O)[C@@H](CC(=O)OC)C1(C)C [2'S-METHYLBUTANOYLPROCERANOLIDE]	48.4	7.14	16.7	96.7	7.14	96.7	23.3	53	0	0	6.67	100	50	10.6 (≈ 19.1 µM)	3.57	4.03 (≈ 7.27 µM)	0	14.3	96.7	3.33	mortality at 25 µg/mL [5]: 83.3%; mortality at 25 µg/mL [8]: 80%; mortality at 500 µg/mL [10]: 24.1%; mortality at 25 µg/mL [14]: 86.7%; mortality at 25 µg/mL [20]: 76.7%; Activity [21]: 41.7%; mortality at 50 µg/mL [27]: 0%; Activity [28]: 33.9%
C/C=C(\C)C(=O)O[C@H]1C[C@@H](OC(C)=O)[C@@]2(C(=O)OC)CO[C@H]3[C@@H](O)[C@@](C)([C@]45O[C@@]4(C)[C@@H]4C[C@H]5O[C@@H]5OC=C[C@@]54O)[C@H]4[C@]1(CO[C@]4(O)C(=O)OC)[C@@H]32 [AZADIRACHTIN A]	–	–	–	10	–	10	–	–	–	–	–	10	–	–	–	–	–	–	3.33	–	mortality at 10 µg/mL [29]: 56.7%; mortality at 10 µg/mL [30]: 63.3%; mortality at 10 µg/mL [31]: 20%; mortality at 10 µg/mL [32]: 46.7%
CCC(C)C(=O)OC1[C@@H]2CC3=C4CC(=O)O[C@@H](c5ccoc5)[C@]4(C)CCC3[C@@](C)(C2=O)[C@@H](CC(=O)OC)C1(C)C (some centres not stated) [KHAYASIN]	48.4	100	100	100	100	100	100	53	100	100	100	100	50	7.28 (≈ 13.1 µM)	100	3.39 (≈ 6.11 µM)	100	100	96.7	100	mortality at 1 µg/mL [33]: 23.3%; mortality at 1 µg/mL [34]: 26.7%; mortality at 10 µg/mL [29]: 79.3%; mortality at 1 µg/mL [35]: 20%; mortality at 500 µg/mL [10]: 24.1%; mortality at 10 µg/mL [30]: 86.3%; mortality at 10 µg/mL [31]: 71.8%; mortality at 10 µg/mL [32]: 79.3%; Activity [21]: 41.7%; mortality at 1 µg/mL [36]: 23.3%; mortality at 50 µg/mL [27]: 100%; Activity [28]: 33.9%
C=C(C)[C@H]1Cc2c(ccc3c2O[C@@H]2COc4cc(OC)c(OC)cc4[C@@H]2C3=O)O1 [ROTENONE]	–	–	–	96.7	–	86.7	–	–	–	–	–	100	–	5.32 (≈ 13.5 µM)	–	1.61 (≈ 4.08 µM)	–	–	86.7	–	mortality at 5 µg/mL [37]: 76.7%; mortality at 5 µg/mL [38]: 73.3%; mortality at 10 µg/mL [29]: 90%; mortality at 5 µg/mL [39]: 66.7%; mortality at 5 µg/mL [40]: 60%; mortality at 10 µg/mL [30]: 90%; mortality at 10 µg/mL [31]: 80%; mortality at 10 µg/mL [32]: 90%
CC(=O)O[C@@H]1C[C@H](O)[C@@]23CO[C@@H](O)[C@]1(C)[C@@H]2C[C@@H](O)[C@]1(C)[C@@H]3C(=O)[C@H](OC(C)=O)[C@@]2(C)[C@H](c3ccoc3)C[C@H]3O[C@]321 [TOOSENDANIN]	87.1	73.3	100	–	63.3	–	100	90.6	73.3	60	100	–	100	–	53.3	–	66.7	83.3	–	96.7	mortality at 50 µg/mL [27]: 53.3%
